Assay results as given in ChEMBL document CHEMBL5465560, “Selectivity Literature for EUbOPEN Chemogenomic Library” (2024).

How the values were obtained:
[1] = biological target: T1, Ephrin type-A receptor 8 (Homo sapiens) (UniProt P29322); test: Selectivity interaction (KinomeScan (DiscoverX)) EUB0000229b EPHA8; conditions: at 10 µM
T1 sequence (whole entry): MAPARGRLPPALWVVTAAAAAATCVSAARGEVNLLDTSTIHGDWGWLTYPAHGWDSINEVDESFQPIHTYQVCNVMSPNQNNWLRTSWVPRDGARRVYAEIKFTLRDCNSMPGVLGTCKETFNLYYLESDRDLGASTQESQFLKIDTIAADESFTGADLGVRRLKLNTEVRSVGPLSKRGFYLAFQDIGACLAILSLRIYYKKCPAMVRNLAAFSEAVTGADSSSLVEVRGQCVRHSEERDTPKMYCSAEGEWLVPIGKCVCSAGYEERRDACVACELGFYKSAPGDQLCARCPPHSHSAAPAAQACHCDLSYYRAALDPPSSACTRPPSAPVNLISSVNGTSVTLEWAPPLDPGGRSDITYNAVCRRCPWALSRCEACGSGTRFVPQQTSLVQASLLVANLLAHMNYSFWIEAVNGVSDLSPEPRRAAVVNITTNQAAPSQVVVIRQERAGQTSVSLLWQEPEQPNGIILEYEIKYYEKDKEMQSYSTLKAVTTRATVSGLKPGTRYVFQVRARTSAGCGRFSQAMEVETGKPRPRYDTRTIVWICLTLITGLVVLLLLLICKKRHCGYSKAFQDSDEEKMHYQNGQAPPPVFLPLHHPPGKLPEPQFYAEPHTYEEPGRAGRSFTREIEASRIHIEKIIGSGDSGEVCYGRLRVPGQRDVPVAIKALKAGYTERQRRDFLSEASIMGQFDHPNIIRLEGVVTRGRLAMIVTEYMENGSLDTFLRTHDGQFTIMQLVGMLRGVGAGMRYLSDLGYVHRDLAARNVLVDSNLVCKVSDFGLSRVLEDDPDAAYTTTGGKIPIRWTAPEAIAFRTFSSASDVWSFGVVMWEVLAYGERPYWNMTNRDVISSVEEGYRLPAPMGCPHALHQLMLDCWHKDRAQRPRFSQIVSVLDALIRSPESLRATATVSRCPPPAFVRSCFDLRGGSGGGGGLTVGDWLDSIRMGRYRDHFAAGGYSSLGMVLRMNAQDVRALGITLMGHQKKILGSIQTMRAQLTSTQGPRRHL

[2] = biological target: Vascular endothelial growth factor receptor 1 (Homo sapiens) (UniProt P17948); test: Selectivity interaction (KinomeScan (DiscoverX)) EUB0000229b FLT1; conditions: at 10 µM
[3] = biological target: Dual specificity protein kinase CLK2 (Homo sapiens, UniProt P49760); test: Selectivity interaction (Enzymatic assay) EUB0001550a CLK2
Chain of Dual specificity protein kinase CLK2 (P49760 whole entry): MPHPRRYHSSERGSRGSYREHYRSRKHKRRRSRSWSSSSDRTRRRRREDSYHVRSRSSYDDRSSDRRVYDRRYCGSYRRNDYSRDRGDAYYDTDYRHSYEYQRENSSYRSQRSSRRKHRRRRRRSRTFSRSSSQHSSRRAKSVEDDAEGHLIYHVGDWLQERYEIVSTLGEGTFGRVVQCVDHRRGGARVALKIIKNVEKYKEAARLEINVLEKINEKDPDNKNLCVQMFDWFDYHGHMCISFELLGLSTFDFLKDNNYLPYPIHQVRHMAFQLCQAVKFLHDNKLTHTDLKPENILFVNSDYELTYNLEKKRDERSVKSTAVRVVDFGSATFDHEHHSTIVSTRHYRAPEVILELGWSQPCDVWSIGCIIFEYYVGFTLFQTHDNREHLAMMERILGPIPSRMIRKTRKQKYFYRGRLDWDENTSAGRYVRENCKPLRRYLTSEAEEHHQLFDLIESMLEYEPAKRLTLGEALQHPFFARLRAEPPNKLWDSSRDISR

[4] = biological target: Homeodomain-interacting protein kinase 1 (Homo sapiens, UniProt Q86Z02); test: Selectivity interaction (KinomeScan (DiscoverX)) EUB0000655a HIPK1; conditions: at 10 µM
[5] = biological target: Serine/threonine-protein kinase PLK3 (Homo sapiens, UniProt Q9H4B4); test: Selectivity interaction (KinomeScan (DiscoverX)) EUB0001079a PLK3; conditions: at 1 µM
[6] = biological target: Receptor-interacting serine/threonine-protein kinase 3 (Homo sapiens) (UniProt Q9Y572); test: Selectivity interaction (Kinase panel (KiNativ target engagement assay in Jurkat cells)) EUB0001635a RIPK3; type: cell-based; conditions: Selectivity number of off-targets 0.0, Selectivity number of targets 233.0, Source Knowledge https://www.sciencedirect.com/science/article/pii/S2451945619300674?via%3Dihub, at 1 µM
Chain of Receptor-interacting serine/threonine-protein kinase 3 (Homo sapiens) (Q9Y572 whole entry, looked up): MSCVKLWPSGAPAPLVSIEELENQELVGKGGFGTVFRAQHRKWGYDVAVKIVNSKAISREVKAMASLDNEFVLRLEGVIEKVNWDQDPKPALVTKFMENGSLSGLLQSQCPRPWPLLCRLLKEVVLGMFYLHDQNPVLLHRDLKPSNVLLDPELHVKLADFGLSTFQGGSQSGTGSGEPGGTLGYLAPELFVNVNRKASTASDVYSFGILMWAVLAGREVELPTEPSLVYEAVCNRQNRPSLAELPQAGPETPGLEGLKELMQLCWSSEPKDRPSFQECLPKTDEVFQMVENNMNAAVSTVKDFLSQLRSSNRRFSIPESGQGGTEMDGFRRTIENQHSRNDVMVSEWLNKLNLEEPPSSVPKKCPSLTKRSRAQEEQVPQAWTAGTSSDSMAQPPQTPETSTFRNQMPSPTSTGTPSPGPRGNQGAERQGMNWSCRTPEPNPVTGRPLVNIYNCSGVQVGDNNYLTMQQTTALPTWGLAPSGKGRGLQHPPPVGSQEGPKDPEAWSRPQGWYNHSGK

[7] = biological target: Cyclin-dependent kinase 14 (Homo sapiens) (UniProt O94921); test: Selectivity interaction (Kinase panel (KiNativ target engagement assay in Jurkat cells)) EUB0001635a CDK14; type: cell-based; conditions: at 1 µM
[8] = biological target: Bromodomain-containing protein 4 (Homo sapiens, UniProt O60885)
[9] = biological target: SRSF protein kinase 2 (Homo sapiens) (UniProt P78362); test: Selectivity interaction (Kinase panel (Z-LYTE Assay)) EUB0001632a SRPK2; conditions: at 10 µM
[10] = biological target: Receptor-interacting serine/threonine-protein kinase 3 (Homo sapiens) (UniProt Q9Y572); test: Selectivity interaction (ActivX KiNativ screen (kinase selectivity in THP-1 cell lysates)) EUB0000639a RIPK3; type: subcellular; conditions: lysate
[11] = biological target: T2, Interleukin-1 receptor-associated kinase 3 (Homo sapiens) (UniProt Q9Y616); test: Selectivity interaction (ActivX KiNativ screen (kinase selectivity in THP-1 cell lysates)) EUB0000639a IRAK3; type: subcellular; conditions: lysate, at 0.01 µM
T2 sequence (whole entry): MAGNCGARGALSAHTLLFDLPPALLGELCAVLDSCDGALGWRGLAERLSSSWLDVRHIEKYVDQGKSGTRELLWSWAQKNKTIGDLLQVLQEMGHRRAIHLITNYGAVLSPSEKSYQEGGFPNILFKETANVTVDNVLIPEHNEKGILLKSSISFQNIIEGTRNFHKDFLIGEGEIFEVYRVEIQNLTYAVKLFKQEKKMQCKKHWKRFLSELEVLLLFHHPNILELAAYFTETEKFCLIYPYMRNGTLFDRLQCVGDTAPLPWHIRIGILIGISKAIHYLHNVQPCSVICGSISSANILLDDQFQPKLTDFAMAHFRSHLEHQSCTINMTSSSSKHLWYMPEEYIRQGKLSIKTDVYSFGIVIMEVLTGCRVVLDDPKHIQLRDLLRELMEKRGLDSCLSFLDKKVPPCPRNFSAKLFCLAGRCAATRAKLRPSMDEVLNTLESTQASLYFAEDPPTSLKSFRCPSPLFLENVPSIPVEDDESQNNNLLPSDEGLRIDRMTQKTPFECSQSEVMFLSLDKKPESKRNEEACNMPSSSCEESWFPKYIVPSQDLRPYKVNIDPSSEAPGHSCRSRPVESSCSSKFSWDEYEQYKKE

[12] = biological target: Casein kinase I isoform gamma-2 (Homo sapiens) (UniProt P78368); test: Selectivity interaction (KinomeScan (DiscoverX)) EUB0001049a CSNK1G2; conditions: at 1 µM
[13] = biological target: Tyrosine-protein kinase receptor Tie-1 (Homo sapiens) (UniProt P35590); test: Selectivity interaction (KinomeScan (DiscoverX)) EUB0001049a TIE1; conditions: at 1 µM
[14] = biological target: Histone-lysine N-methyltransferase 2A (Homo sapiens) (UniProt Q03164); test: Selectivity interaction (Methyltransferase screen (radiometric assays, panel of 8 PRMTs, 21 protein lysine methyltransferases, 3 DNA methyltransferases, and one RNA methyltransferase)) EUB0000271b MLL
Chain of Histone-lysine N-methyltransferase 2A (Homo sapiens) (Q03164 1-2718 limits assumed): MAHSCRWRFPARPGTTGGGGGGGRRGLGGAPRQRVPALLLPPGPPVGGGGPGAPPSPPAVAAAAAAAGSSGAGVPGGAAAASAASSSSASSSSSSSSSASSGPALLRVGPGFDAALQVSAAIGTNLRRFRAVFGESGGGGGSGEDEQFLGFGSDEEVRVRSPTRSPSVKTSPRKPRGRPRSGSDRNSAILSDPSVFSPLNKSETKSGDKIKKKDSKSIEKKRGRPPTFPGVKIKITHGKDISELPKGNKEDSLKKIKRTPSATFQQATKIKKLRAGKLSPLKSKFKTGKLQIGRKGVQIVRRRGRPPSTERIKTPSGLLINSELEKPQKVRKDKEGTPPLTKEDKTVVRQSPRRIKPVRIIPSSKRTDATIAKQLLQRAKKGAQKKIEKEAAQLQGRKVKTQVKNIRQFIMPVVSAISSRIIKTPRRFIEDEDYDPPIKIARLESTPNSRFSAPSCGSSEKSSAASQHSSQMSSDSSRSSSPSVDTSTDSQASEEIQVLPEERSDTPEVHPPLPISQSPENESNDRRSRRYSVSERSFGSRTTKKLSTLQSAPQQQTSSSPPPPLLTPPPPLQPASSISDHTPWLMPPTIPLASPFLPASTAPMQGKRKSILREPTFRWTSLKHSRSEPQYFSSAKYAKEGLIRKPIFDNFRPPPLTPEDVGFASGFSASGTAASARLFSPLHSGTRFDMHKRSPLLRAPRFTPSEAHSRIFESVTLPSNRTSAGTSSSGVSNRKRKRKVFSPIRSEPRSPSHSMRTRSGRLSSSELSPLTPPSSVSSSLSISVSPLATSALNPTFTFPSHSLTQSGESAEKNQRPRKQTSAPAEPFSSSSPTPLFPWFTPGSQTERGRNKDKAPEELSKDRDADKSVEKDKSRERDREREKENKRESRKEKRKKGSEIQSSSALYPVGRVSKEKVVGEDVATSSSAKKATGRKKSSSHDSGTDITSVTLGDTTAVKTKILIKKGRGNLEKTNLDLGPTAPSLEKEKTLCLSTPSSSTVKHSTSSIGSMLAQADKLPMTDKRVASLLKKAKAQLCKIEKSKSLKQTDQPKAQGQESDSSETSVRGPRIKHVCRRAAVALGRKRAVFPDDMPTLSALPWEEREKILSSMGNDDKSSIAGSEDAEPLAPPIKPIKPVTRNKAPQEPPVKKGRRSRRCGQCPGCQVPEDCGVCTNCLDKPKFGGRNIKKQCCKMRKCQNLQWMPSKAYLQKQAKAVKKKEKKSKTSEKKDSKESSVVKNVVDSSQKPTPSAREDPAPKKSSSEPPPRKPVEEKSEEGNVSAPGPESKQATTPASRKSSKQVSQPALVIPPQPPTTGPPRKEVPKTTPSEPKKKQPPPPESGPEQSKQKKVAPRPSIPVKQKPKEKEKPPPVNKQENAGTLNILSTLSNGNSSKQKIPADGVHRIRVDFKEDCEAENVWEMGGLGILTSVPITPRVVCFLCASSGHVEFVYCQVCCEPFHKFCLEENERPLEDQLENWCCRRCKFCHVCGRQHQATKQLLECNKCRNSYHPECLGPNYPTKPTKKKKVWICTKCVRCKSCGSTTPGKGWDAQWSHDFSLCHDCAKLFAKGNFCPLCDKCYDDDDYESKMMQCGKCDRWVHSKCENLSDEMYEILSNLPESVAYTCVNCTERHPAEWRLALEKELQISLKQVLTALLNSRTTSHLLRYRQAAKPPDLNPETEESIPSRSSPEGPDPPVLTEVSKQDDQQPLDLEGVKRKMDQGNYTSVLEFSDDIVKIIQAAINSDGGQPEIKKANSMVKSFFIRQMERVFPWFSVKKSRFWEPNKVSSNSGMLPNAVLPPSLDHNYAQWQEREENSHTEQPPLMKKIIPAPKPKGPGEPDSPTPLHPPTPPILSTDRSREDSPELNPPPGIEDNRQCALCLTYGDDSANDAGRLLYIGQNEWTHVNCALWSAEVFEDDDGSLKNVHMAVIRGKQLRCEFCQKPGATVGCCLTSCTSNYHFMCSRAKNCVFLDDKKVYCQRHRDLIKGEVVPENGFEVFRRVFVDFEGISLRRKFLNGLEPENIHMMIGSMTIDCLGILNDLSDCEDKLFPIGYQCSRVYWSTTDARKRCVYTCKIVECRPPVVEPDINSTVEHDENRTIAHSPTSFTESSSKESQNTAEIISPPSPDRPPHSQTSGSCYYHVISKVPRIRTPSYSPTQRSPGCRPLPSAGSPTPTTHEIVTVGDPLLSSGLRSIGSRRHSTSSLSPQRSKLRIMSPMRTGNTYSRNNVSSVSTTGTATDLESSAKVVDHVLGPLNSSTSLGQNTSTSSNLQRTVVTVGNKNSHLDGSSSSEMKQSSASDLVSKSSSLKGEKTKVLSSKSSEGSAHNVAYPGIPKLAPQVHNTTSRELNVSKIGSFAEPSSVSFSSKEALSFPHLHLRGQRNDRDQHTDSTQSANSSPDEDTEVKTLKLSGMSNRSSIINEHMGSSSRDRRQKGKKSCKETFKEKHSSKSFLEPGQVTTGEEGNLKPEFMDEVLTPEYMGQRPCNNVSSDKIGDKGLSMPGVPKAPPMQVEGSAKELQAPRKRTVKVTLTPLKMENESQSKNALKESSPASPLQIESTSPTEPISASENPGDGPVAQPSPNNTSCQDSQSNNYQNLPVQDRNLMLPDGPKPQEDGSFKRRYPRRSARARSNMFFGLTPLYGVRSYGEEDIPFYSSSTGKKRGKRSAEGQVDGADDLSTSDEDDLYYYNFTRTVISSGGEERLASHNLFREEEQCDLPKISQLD
Chain of Histone-lysine N-methyltransferase 2A (Homo sapiens) (Q03164 2719-3969 limits assumed): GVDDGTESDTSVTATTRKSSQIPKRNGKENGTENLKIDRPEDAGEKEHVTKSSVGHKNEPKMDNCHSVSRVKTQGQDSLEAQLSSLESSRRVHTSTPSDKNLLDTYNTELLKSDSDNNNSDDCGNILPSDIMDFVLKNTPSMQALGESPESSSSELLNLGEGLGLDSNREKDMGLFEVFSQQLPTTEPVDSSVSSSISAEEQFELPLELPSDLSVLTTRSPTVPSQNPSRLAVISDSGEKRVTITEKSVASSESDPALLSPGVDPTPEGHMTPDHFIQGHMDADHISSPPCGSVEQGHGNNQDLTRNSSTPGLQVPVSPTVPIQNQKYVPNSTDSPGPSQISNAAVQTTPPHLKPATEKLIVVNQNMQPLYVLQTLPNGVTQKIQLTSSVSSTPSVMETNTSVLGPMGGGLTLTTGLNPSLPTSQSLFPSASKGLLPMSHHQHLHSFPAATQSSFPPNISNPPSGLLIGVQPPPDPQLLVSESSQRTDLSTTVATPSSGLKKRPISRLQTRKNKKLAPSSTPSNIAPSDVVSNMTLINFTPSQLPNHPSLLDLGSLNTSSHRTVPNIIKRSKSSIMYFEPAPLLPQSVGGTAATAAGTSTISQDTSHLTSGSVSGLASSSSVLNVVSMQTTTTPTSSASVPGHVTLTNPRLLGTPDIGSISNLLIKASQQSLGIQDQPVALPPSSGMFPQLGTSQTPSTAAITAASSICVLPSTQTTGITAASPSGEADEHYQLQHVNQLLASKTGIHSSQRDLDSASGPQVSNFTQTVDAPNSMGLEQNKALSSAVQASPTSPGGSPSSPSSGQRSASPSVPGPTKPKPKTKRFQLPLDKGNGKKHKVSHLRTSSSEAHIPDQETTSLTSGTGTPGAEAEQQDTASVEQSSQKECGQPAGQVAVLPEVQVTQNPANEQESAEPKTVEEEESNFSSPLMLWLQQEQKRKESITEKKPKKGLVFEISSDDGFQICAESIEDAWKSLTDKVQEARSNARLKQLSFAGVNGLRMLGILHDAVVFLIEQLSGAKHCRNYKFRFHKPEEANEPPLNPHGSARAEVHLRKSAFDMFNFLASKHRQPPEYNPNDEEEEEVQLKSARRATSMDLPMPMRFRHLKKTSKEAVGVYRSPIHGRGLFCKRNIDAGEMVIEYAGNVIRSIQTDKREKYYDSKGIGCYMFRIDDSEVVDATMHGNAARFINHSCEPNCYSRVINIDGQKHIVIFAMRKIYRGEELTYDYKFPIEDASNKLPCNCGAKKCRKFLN

[15] = biological target: Cyclin-dependent kinase-like 3 (Homo sapiens) (UniProt Q8IVW4); test: Selectivity interaction (KinomeScan (DiscoverX)) EUB0000595a CDKL3; conditions: at 10 µM
Activated CDC42 kinase 1 = Activated CDC42 kinase 1 (Homo sapiens, UniProt Q07912); test: Selectivity interaction (KinomeScan (DiscoverX)) EUB0000045b TNK2
[16] = biological target: Substance-K receptor (Homo sapiens) (UniProt P21452); test: Selectivity interaction (Eurofins CEREP Diversity Profile (receptors and ion channels)) EUB0000279b TACR2; conditions: at 10 µM

Question: Which % binding [1] does the source give for `COc1cc(N(C)c2ccnc3ccc(C(F)(F)F)cc23)cc(OC)c1OC` here?
Answer: The % binding was 94%.

Question: And the % binding [2]?
Answer: The % binding was 100%.

Question: `CN(C)CC#Cc1ccc2[nH]c3c(c2c1)-c1nc(N)ncc1CCC3` was tested. Which IC50 [3] did it give?
Answer: The IC50 was 290 nM.

Question: Which % of control [4] does the source give for `CN(C)CCOc1ccc(-c2nc(-c3ccncc3)c(-c3ccc4c(c3)CC/C4=N\O)[nH]2)cc1` here?
Answer: The % of control was 11%.

Question: How did the % of control [5] turn out when `Nc1cnc(N2CCc3cc(S(=O)(=O)Nc4c(F)cc(Cl)cc4F)cc(N4CCCC4=O)c32)nc1` [TP-020n] was run?
Answer: Its % of control is 100%.

Question: How did the % of engagement [6] turn out when `C=CC(=O)Nc1ccc(C(=O)Nc2[nH]nc3c2CN(C(=O)N[C@H](CN(C)C)c2ccccc2)C3(C)C)cc1` was run?
Answer: The % of engagement was -0.8%.

Question: What about the % of engagement [7] of the same compound?
Answer: The % of engagement was -33.3%.

Question: `CC(=O)Nc1cccc(-n2c(=O)n(C3CC3)c(=O)c3c(Nc4ccc(I)cc4F)n(C)c(=O)c(C)c32)c1` was tested. Which Kdapp [8] did it give?
Answer: Its Kdapp is 1920 nM.

Question: How did the % of control [9] turn out when `Cn1cc(-n2cnc3c(NCc4nc5cc(Cl)c(Cl)cc5[nH]4)nc(N4CCOCC4)nc32)cn1` was run?
Answer: Its % of control is -0.444%.

Question: `CC[C@@H]1[C@H](F)C(=O)N[C@@H]1COc1nccc2cc(C(N)=O)c(OC)cc12` [ZIMLOVISERTIB] was tested. Which % of inhibition ([10]; at 0.01 µM) did it give?
Answer: The % of inhibition was 3%.

Question: And the % of inhibition ([10]; at 0.04 µM)?
Answer: Its % of inhibition is -0.8%.

Question: What about the % of inhibition ([10]; at 0.2 µM) of the same compound?
Answer: Its % of inhibition is -4.3%.

Question: And the % of inhibition ([10]; at 1 µM)?
Answer: Its % of inhibition is 8.9%.

Question: And the % of inhibition ([10]; at 5 µM)?
Answer: Its % of inhibition is -8.6%.

Question: And the % of inhibition [11]?
Answer: Its % of inhibition is -5.3%.

Question: How did the % of control [12] turn out when `COc1cc(Nc2nc(C)cc(-c3cnn4nc(OC)ccc34)n2)cc(C(F)(F)F)c1` was run?
Answer: Its % of control is 97%.

Question: And the % of control [13]?
Answer: Its % of control is 84%.

Question: Which results are given for `Cc1cc(C)cc([C@@H]2c3cc(C)ccc3NC(=O)CN2C(=O)c2ccc(Br)s2)c1`?
Answer: % of activity ([14]; at 1 µM): 99.7%; % of activity ([14]; at 10 µM): 103%

Question: For `COCC(=O)NC/C=C/c1ccc2ncnc(Nc3ccc(Oc4ccc(C)nc4)c(C)c3)c2c1` [CP-724714], which % of control [15] is on record?
Answer: Its % of control is 100%.

Question: Which % of control (Activated CDC42 kinase 1; at 1 µM) does the source give for `C=CC(=O)Nc1cc(-n2c(=O)ccc3cnc4ccc(-c5ccc(NS(C)(=O)=O)cc5)cc4c32)ccc1C` here?
Answer: The % of control was 100%.

Question: What about the % of control (Activated CDC42 kinase 1; at 10 µM) of the same compound?
Answer: Its % of control is 100%.

Question: `CC(=O)c1cc(-c2ccccc2OCC2CC2)c2ncccn12` was tested. Which % of control [16] did it give?
Answer: The % of control was 92%.
